The values that follow come from patent US9096591B2, “Tetracyclic compounds” (Medivation Technologies, Inc., priority 2007, dated 2015).

Read-outs that look alike come from different tables or passages of the source.

By inhibition is commonly meant the relative decrease from the control value, in per cent.

In experiment [1] the target is T1, human recombinant histamine H2 receptor (Homo sapiens, UniProt P25021).
T1 construct: expressed in transfected cells; host or cells: CHO-K1 cells
Briefly: Histamine H2 radioligand binding ([125I]Aminopotentidine). In outline:
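This radioligand binding assay measured displacement of [125I]Aminopotentidine from recombinant human histamine H2 receptors. Compounds were dissolved in 1% DMSO vehicle. Specific binding was calculated by subtracting non-specific binding, defined using 3 μM Tiotidine, and activity was reported as percentage inhibition of that specific binding.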

Experiment [2] addresses T2, human recombinant adrenergic α1D receptor (Homo sapiens, UniProt P25100).
T2 construct: expressed in transfected cells; host or cells: HEK-293 cells
T2 sequence (P25100 1-572): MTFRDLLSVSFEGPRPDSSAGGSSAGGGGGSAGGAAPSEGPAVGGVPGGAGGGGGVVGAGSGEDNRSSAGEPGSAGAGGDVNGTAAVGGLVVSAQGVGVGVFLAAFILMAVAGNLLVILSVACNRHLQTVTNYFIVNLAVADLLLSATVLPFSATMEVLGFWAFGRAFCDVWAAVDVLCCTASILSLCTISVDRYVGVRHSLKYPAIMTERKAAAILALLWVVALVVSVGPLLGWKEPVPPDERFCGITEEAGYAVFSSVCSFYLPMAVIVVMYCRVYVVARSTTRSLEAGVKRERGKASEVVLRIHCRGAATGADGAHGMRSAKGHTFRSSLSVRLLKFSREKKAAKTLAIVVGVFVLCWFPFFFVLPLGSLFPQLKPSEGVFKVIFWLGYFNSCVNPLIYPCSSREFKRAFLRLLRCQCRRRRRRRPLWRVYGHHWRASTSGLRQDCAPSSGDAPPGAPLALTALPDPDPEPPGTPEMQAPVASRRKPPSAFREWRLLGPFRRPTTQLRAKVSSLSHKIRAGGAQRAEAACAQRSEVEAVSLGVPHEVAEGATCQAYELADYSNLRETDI
As to the kind of experiment: Adrenergic α1D radioligand binding ([3H]Prozosin). Also noted: Inhibition of ligand binding, Adren. alpha1D: concentration or dose not given beside the values. The note with it: for Inhibition of ligand binding, Adren. alpha1D: percent inhibition of specific binding; for inhibition at 1 µM: compounds screened at 1 μM, read-out: Inhibition of ligand binding, Adren. alpha1D (percent inhibition of specific binding). The protocol: Compounds of invention were incubated with 0.6 nM [^3H]Prozosin for 60 minutes at 25° C. Non-specific binding was estimated in the presence of 10 μM phentolamine. Receptor proteins were filtered and washed, the filters were then counted to determine [^3H]Prozosin specifically bound. […] Biochemical assay results are presented as the percent inhibition of specific binding in Table 6.

In experiment [3] the target is T3, human recombinant dopamine D2L receptor (Homo sapiens, UniProt P14416).
T3 construct: expressed in transfected cells; host or cells: CHO cells
T3 sequence (P14416 whole entry): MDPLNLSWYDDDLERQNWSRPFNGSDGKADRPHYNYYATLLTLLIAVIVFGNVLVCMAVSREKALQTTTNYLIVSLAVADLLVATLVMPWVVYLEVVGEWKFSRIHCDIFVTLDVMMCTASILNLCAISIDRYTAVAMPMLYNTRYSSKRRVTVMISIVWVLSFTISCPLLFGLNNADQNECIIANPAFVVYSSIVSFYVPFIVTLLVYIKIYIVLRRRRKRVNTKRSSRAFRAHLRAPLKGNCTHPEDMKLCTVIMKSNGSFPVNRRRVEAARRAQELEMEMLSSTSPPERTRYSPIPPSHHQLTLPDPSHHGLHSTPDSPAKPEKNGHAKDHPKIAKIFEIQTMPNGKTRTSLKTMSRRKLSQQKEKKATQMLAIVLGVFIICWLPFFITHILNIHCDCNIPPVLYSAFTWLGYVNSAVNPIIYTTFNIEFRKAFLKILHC
Briefly: Dopamine D2L radioligand binding ([3H]Spiperone). The note with it: for Inhibition of ligand binding, Dop. D2L: percent inhibition of specific binding; for inhibition at 1 µM: compounds screened at 1 μM, read-out: Inhibition of ligand binding, Dop. D2L (percent inhibition of specific binding). The method, then:
Non-specific binding was estimated in the presence of 10 μM Haloperidol. Receptor proteins were filtered and washed, the filters were then counted to determine [^3H]Spiperone specifically bound. […] Biochemical assay results are presented as the percent inhibition of specific binding in Table 6.

For experiment [4], the target named is T4, human recombinant adrenergic α2A receptor (Homo sapiens, UniProt P08913).
T4 construct: expressed in transfected cells; host or cells: insect Sf9 cells
T4 sequence (P08913 1-465): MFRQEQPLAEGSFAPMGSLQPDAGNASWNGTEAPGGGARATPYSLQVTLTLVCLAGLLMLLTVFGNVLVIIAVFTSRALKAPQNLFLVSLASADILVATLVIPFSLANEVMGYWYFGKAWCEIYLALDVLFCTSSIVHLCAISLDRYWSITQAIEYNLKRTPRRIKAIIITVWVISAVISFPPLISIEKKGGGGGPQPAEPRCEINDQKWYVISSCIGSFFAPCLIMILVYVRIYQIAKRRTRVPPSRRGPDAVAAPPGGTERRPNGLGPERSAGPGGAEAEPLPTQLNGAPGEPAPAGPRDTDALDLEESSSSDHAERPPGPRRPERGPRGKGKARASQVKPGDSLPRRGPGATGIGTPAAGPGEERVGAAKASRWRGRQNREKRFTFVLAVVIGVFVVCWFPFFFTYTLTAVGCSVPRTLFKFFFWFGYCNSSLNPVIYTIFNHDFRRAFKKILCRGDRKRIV
As to the kind of experiment: Adrenergic α2A radioligand binding ([3H]MK-912). Also on record: Inhibition of ligand binding, Adren. alpha2A: concentration or dose not given beside the values. The note with it: for Inhibition of ligand binding, Adren. alpha2A: percent inhibition of specific binding; for inhibition at 1 µM: compounds screened at 1 μM, read-out: Inhibition of ligand binding, Adren. alpha2A (percent inhibition of specific binding). The protocol:
To evaluate in radioligand binding assays the activity of compounds of the invention, human recombinant adrenergic α2A receptor expressed in insect Sf9 cells (Uhlen S et al. J Pharmacol Exp Ther. 271:1558, 1994) in a modified Tris-HCl buffer (50 mM Tris-HCl, pH 7.4, 12.5 mM MgCl2, 2 mM EDTA) was used. Compounds of invention were incubated with 1 nM [^3H]MK-912 for 60 minutes at 25° C. MK912 is (2S-trans)-1,3,4,5′,6,6′,7,12b-octahydro-1′,3′-dimethyl-spiro[2H-benzofuro[2,3-a]quinolizine-2,4′(1′H)-pyrimidin]-2′(3′H)-one hydrochloride Non-specific binding was estimated in the presence of 10 μM WB-4101 (2-(2,6-Dimethoxyphenoxyethyl)aminomethyl-1,4-benzodioxane hydrochloride). Receptor proteins were filtered and washed, the filters were then counted to determine [^3H]MK-912 specifically bound. […] Biochemical assay results are presented as the percent inhibition of specific binding in Table 6.

Setting [5] is: percent inhibition of specific binding, screened at 1 μM, read-out: Inhibition of ligand binding, Hist. H2.
The mark [6] stands for this setting: compounds screened at 1 μM, read-out: Inhibition of ligand binding, Hist. H2 (percent inhibition of specific binding).

T1 sequence (P25021 whole entry): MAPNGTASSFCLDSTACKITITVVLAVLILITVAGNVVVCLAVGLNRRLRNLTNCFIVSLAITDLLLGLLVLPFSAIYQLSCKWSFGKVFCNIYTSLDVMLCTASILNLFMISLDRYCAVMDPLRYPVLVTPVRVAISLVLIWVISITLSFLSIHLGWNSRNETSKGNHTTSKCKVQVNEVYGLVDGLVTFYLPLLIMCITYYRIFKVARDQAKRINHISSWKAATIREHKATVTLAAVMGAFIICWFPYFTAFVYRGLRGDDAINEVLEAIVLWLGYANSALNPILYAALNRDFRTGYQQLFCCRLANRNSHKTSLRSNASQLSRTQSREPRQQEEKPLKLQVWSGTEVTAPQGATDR

For `CN1CCc2c(c3cc(Cl)ccc3n2CCC(=O)N2CCCCC2)C1` [Compound 326, 3-(8-chloro-1,2,3,4-tetrahydro-2-methylpyrido[4,3-b]indol-5-yl)-1-(piperidin-1-yl)propan-1-one], the inhibition at 1 µM in experiment [1] (setting [5]) was 12%. Further, the “Inhibition of ligand binding, Adren. alpha1D” value (“Inhibition … Adren. alpha1D” for short) in experiment [2] came out at 40%. Also, the “Inhibition of ligand binding, Dop. D2L” value in experiment [3] was −5%. Further, in experiment [4], the “Inhibition of ligand binding, Adren. alpha2A” value (“Inhibition … Adren. alpha2A” below) is 55%.
Take `CN1CCc2c(c3cc(Cl)ccc3n2CCC(=O)N2CCOCC2)C1` [Compound 328, 3-(8-chloro-1,2,3,4-tetrahydro-2-methylpyrido[4,3-b]indol-5-yl)-1-morpholinopropan-1-one]: the inhibition at 1 µM in experiment [1] (setting [5]) is 4%. Moreover, the “Inhibition … Adren. alpha1D” value in experiment [2] worked out at 23%. The “Inhibition of ligand binding, Dop. D2L” value in experiment [3] is 6%. In addition, the “Inhibition … Adren. alpha2A” value in experiment [4] is 45%.
For the compound `Cc1ccc2c(c1)c1c(n2CC(=O)N2CCOCC2)CCN(C)C1` [Compound 330, 2-(1,2,3,4-tetrahydro-2,8-dimethylpyrido[4,3-b]indol-5-yl)-1-morpholinoethanone], the inhibition at 1 µM in experiment [1] (setting [5]) turned out to be 6%. Moreover, the “Inhibition … Adren. alpha1D” value in experiment [2] turned out to be 8%. Moreover, the “Inhibition of ligand binding, Dop. D2L” value in experiment [3] is recorded as −8%. The “Inhibition … Adren. alpha2A” value in experiment [4] is reported as 1%.
Regarding `Cc1ccc2c(c1)c1c(n2CCCc2ccc(C(F)(F)F)nc2)CCN(C)C1` [Compound 331, 5-(3-(6-(trifluoromethyl)pyridin-3-yl)propyl)-2,3,4,5-tetrahydro-2,8-dimethyl-1H-pyrido[4,3-b]indole], the inhibition at 1 µM in experiment [1] (setting [5]) stood at 73%. Also, the “Inhibition … Adren. alpha1D” value in experiment [2] came to 63%. In experiment [3], the “Inhibition of ligand binding, Dop. D2L” value was 20%. The “Inhibition … Adren. alpha2A” value in experiment [4] is 50%.
With `CCOc1ccc(CCn2c3c(c4cc(C)ccc42)CN(C)CC3)cc1` [Compound 334, 5-[2-(4-Ethoxy-phenyl)-ethyl]-2,8-dimethyl-2,3,4,5-tetrahydro-1H-pyrido[4,3-b]indole], the inhibition at 1 µM in experiment [1] (setting [5]) is 91%. For the same compound, the “Inhibition … Adren. alpha1D” value in experiment [2] turned out to be 110%. Further, the “Inhibition of ligand binding, Dop. D2L” value in experiment [3] is 76%. Further, the “Inhibition … Adren. alpha2A” value in experiment [4] was 101%.
On to `Cc1ccc2c(c1)c1c(n2CCc2ccc(OC(C)(C)C)cc2)CCN(C)C1` [Compound 335, 5-(4-tert-butoxyphenethyl)-2,3,4,5-tetrahydro-2,8-dimethyl-1H-pyrido[4,3-b]indole], for which the inhibition at 1 µM in experiment [1] (setting [5]) worked out at 77%. The “Inhibition … Adren. alpha1D” value in experiment [2] amounted to 91%. In addition, the “Inhibition of ligand binding, Dop. D2L” value in experiment [3] is reported as 44%. For the same compound, the “Inhibition … Adren. alpha2A” value in experiment [4] came out at 31%.
Turning to `COc1ccc(CCn2c3c(c4cc(Cl)ccc42)CN(C)CC3)cc1` [Compound 336, 8-Chloro-5-[2-(4-methoxy-phenyl)-ethyl]-2-methyl-2,3,4,5-tetrahydro-1H pyrido[4,3-b]indole], the inhibition at 1 µM in experiment [1] (setting [5]) was 101%. Moreover, in experiment [2], the “Inhibition … Adren. alpha1D” value was determined as 98%. In experiment [3], the “Inhibition of ligand binding, Dop. D2L” value is 82%. Also, the “Inhibition … Adren. alpha2A” value in experiment [4] is reported as 96%.
Take `COc1ccc(CCn2c3c(c4cc(Cl)ccc42)CN(C)CC3)cc1F` [Compound 337, 5-(3-fluoro-4-methoxyphenethyl)-8-chloro-2,3,4,5-tetrahydro-2-methyl-1H-pyrido[4,3-b]indole]: in experiment [1] (setting [5]), the inhibition at 1 µM was determined as 92%. In addition, in experiment [2], the “Inhibition … Adren. alpha1D” value was 97%. Also, the “Inhibition of ligand binding, Dop. D2L” value in experiment [3] amounted to 81%. Further, the “Inhibition … Adren. alpha2A” value in experiment [4] turned out to be 97%.
In the case of `CN1CCc2c(c3ccncc3n2CCc2ccccn2)C1` [Compound 481, 7-aza-2-methyl-5-(2-(pyridin-2-yl)ethyl)-2,3,4,5-tetrahydro-1H-pyrido[4,3-b]indole], the inhibition at 1 µM was -17% in experiment [1] (setting [6]), 3% in experiment [2], 16% in experiment [3] and 3% in experiment [4].
For the compound `CN1CCc2c(c3ncccc3n2CCc2ccncc2)C1` [Compound 482, 9-aza-2-methyl-5-(2-(pyridin-4-yl)ethyl)-2,3,4,5-tetrahydro-1H-pyrido[4,3-b]indole], the inhibition at 1 µM in experiment [1] (setting [6]) was -9%; in experiment [2], 2%; in experiment [3], 7%; in experiment [4] it was -17%.
Taken in the same sequence, the figures for `CN1CCc2c(c3ccncc3n2CCc2ccncc2)C1` [Compound 483, 7-aza-2-methyl-5-(2-(pyridin-4-yl)ethyl)-2,3,4,5-tetrahydro-1H-pyrido[4,3-b]indole] were -7%, 3%, 0% and -7%.
As for `CN1CCc2c(c3ncccc3n2CCc2ccccn2)C1` [Compound 484, 9-aza-2-methyl-5-(2-(pyridin-2-yl)ethyl)-2,3,4,5-tetrahydro-1H-pyrido[4,3-b]indole], the inhibition at 1 µM in experiment [1] (setting [6]) is -4%; in experiment [2], 10%; in experiment [3], 15%; in experiment [4], 28%.
For the compound `Cc1ccc(CCn2c3c(c4cc(I)ccc42)CN(C)CC3)cn1` [Compound 485, 2,3,4,5-tetrahydro-8-iodo-2-methyl-5-(2-(6-methylpyridin-3-yl)ethyl)-1H-pyrido[4,3-b]indole], the inhibition at 1 µM in experiment [1] (setting [6]) amounted to 71%; in experiment [2] it was 69%; in experiment [3], 43%; in experiment [4], 86%.
Turning to `CN1CCc2c(c3cc(I)ccc3n2CC(=O)N2CCCCC2)C1` [Compound 486, 2-(1,2,3,4-tetrahydro-8-iodo-2-methylpyrido[4,3-b]indol-5-yl)-1-(piperidin-1-yl)ethanone], the inhibition at 1 µM is 11% in experiment [1] (setting [6]), 22% in experiment [2], 0% in experiment [3] and 4% in experiment [4].
Consider `Cc1ccc(CCn2c3c(c4cc(Br)ccc42)CN(C)CC3)cn1` [Compound 487, 8-bromo-2-methyl-5-(2-(6-methylpyridin-3-yl)ethyl)-2,3,4,5-tetrahydro-1H-pyrido[4,3-b]indole], for which the inhibition at 1 µM in experiment [1] (setting [6]) was 80%; in experiment [2], 90%; in experiment [3] it was 42%; in experiment [4], 88%.
The corresponding values for `CN1CCc2c(c3cc(Br)ccc3n2CC(=O)N2CCCCC2)C1` [Compound 516, 2-(8-bromo-2-methyl-3,4-dihydro-1H-pyrido[4,3-b]indol-5(2H)-yl)-1-(piperidin-1-yl)ethanone] are 12%, 26%, -4% and 3%.
